Values of other authors, collected in US20220175648A1, “TOPICAL FORMULATIONS WITH LIPID-BASED CARRIERS” (KATE ROSE LLC, priority 2020, published 2022).

What was measured:
[1] = after just one year
collagen synthesis = settings: versus L-ascorbic acid at the same dosage
[2] = system: UV B and reactive oxygen species; settings: in vitro studies
age spots = settings: 10% solution

## O=C1O[C@H]([C@@H](O)CO)C(O)=C1O [L-ascorbic acid]
[1]
  break down of L-ascorbic acid: 20%

## CCCCCCCCC(CCCCCC)C(=O)OC[C@H](OC(=O)C(CCCCCC)CCCCCCCC)[C@H]1OC(=O)C(OC(=O)C(CCCCCC)CCCCCCCC)=C1OC(=O)C(CCCCCC)CCCCCCCC (stereo partly shown) [THD, Tetrahexyldecyl ascorbate]
Collagen synthesis
  increase of collagen synthesis: up to two times greater than L-ascorbic acid
[2]
  protection against UV B and reactive oxygen species: effective at protecting against UV B and reactive oxygen species
Age spots
  presence of age spots: decreases the presence of age spots
